Key:
[1] = tested on: adults with moderate-to-severe plaque-type psoriasis; experiment: Phase 2b dose-ranging study in psoriasis (Example 3): treatment-emergent adverse events and discontinuations; format: in vivo, human
Description: • Percentage change in Psoriasis […] and Severity Index (PASI) score from Baseline at Week 16. Key Secondary Endpoints • Patients achieving 75% reduction in PASI (PASI75) response at Week 16. • Patients achieving a score of Clear (0) or Almost Clear (1) and an at least 2-point improvement in Investigator Global Assessment (IGA) at Week 16. […] Safety Endpoints: • The occurrence, severity, and seriousness of treatment-emergent adverse events (TEAEs) reported over the 16-week Treatment Period and the 4-week Follow-up Period. • Changes from Baseline in physical examination; vital sign measurements (body temperature, respiration rate, heart rate, and systolic and diastolic blood pressure measurements); and body weight over the 16-week Treatment Period and the 4-week Follow-up Period. • Changes from Baseline in electrocardiogram (ECG) findings over the 16-week Treatment Period and the 4-week Follow-up Period. • Changes from Baseline in safety laboratory values (haematology, serum chemistry, and urinalysis) over the 16-week Treatment Period and the 4-week Follow-up Period. • Hospital Anxiety and Depression Scale at each visit except Week 2. • Columbia-Suicide Severity Rating Scale (C-SSRS) at each visit except Weeks 1 and 2. Exploratory Endpoints: • Change from Baseline in Physician's Global Assessment of Fingernails (PGA-F) at Week 16. • Change in Scalp-Specific Investigator Global Assessment (ss-IGA) from Baseline at Week 16 in the subgroup of patients with Baseline score of at least 2 (mild scalp psoriasis). • Change from Baseline of scalp itch Numeric Rating Scale (NRS) at Week 16 in the subgroup of patients with Baseline score of at least 4 on the 11-point NRS. • Change from Baseline in joint pain NRS at Week 16 in patients with psoriatic arthritis (PsA) and a Baseline joint pain score of at least 4. • Change in cardiovascular risk factors at Week 16. The following parameters will be collected: weight, body mass index, waist and hip circumferences, blood pressure, fasting serum glucose, triglycerides, cholesterol (total and high-density lipoprotein/low-density lipoprotein fractions), and C-reactive protein. • Change from Baseline in skin biomarkers at Week 16 collected via tape stripping and analysed using proteomic methods. • Plasma levels of the drug and its metabolites at scheduled visits. Study Design
At Baseline and each visit from Week 4 onwards, PASI, BSA, IGA, and PSS were assessed. Quality of life was assessed by administration of DLQI at Baseline and at Weeks 16 and 20 visits. Additional efficacy parameters include: an ss-IGA, a Physician Global Assessment of fingernail psoriasis (PGA-F), and patient's joint pain NRS for those with a diagnosis of PsA. These parameters were assessed at Baseline and Weeks 16 and 20. Safety evaluations include adverse events (Aes), laboratory and vital sign assessments, physical examinations, as well as mood change evaluation by patient (Hospital Anxiety and Depression Scale) and suicidal ideation evaluation by Investigator (C-SSRS). A panel of cardiovascular risk factors were assessed at Baseline and Week 16.

[2] = tested on: chronic oxazolone-induced ear skin inflammation; conditions: 10 and 30 mg/kg doses; cited from earlier work

## O=C(Cc1c(Cl)c[n+]([O-])cc1Cl)c1ccc(OC(F)F)c2c1OC1(CCS(=O)(=O)CC1)O2 [orismilast, 2-(3,5-dichloro-1-oxidopyridin-1-ium-4-yl)-1-[7-(difluoromethoxy)-1′,1′-dioxospiro[1,3-benzodioxole-2,4′-thiane]-4-yl]ethanone]
[1]; 20 mg BID
  Abdominal pain upper, adverse event leading to treatment discontinuation: 2.1%
  Abdominal pain upper, treatment-emergent adverse event: 2.1%
  Diarrhea (incl. loose stool), adverse event leading to treatment discontinuation: 10.4%
  Diarrhea (incl. loose stool), treatment-emergent adverse event: 37.5%
  Dizziness, adverse event leading to treatment discontinuation: 2.1%
  Dizziness, treatment-emergent adverse event: 6.3%
  Headache, adverse event leading to treatment discontinuation: 2.1%
  Headache, treatment-emergent adverse event: 12.5%
  Nausea, adverse event leading to treatment discontinuation: 4.2%
  Nausea, treatment-emergent adverse event: 22.9%
  Vomiting, adverse event leading to treatment discontinuation: 0%
  Vomiting, treatment-emergent adverse event: 6.3%
  discontinuations due to adverse events: 21%
[1]; 30 mg BID
  Abdominal pain upper, adverse event leading to treatment discontinuation: 2.0%
  Abdominal pain upper, treatment-emergent adverse event: 6.0%
  Diarrhea (incl. loose stool), adverse event leading to treatment discontinuation: 6.0%
  Diarrhea (incl. loose stool), treatment-emergent adverse event: 48.0%
  Dizziness, adverse event leading to treatment discontinuation: 2.0%
  Dizziness, treatment-emergent adverse event: 14.0%
  Headache, adverse event leading to treatment discontinuation: 4.0%
  Headache, treatment-emergent adverse event: 26.6%
  Nausea, adverse event leading to treatment discontinuation: 8.0%
  Nausea, treatment-emergent adverse event: 38.0%
  Vomiting, adverse event leading to treatment discontinuation: 2.0%
  Vomiting, treatment-emergent adverse event: 8.0%
  discontinuations due to adverse events: 20%
[1]; 40 mg BID
  Abdominal pain upper, adverse event leading to treatment discontinuation: 7.5%
  Abdominal pain upper, treatment-emergent adverse event: 11.3%
  Diarrhea (incl. loose stool), adverse event leading to treatment discontinuation: 20.8%
  Diarrhea (incl. loose stool), treatment-emergent adverse event: 45.3%
  Dizziness, adverse event leading to treatment discontinuation: 1.9%
  Dizziness, treatment-emergent adverse event: 15.1%
  Headache, adverse event leading to treatment discontinuation: 3.8%
  Headache, treatment-emergent adverse event: 20.8%
  Nausea, adverse event leading to treatment discontinuation: 11.3%
  Nausea, treatment-emergent adverse event: 41.5%
  Vomiting, adverse event leading to treatment discontinuation: 5.7%
  Vomiting, treatment-emergent adverse event: 13.2%
[2]
  ear thickness and inflammation markers: significantly reduced

From US12409172B2, “Dosage regimen” (UNION therapeutics A/S, priority 2023, dated 2025)
